From patent US20240174690A1, “ANNULATED 2-AMINO-3-CYANO THIOPHENES AND DERIVATIVES FOR THE TREATMENT OF CANCER” (BOEHRINGER INGELHEIM INTERNATIONAL GMBH, priority 2021, published 2024)

tested on: KRAS G12V-dependent Ba/F3 cells; test: Ba/F3 proliferation assay, KRAS G12V; assay type: cell-based; settings: 72 h, AlamarBlue;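 note: proliferation IC50 in KRAS G12V-dependent Ba/F3 cells read by AlamarBlue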
Summary of the method: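 Viability is measured as AlamarBlue fluorescence in Ba/F3 cells that depend on a transduced mutant KRAS isoform for growth without IL-3. Each treatment is run in technical duplicate, and dose-response curves are fitted.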

Compound C[C@H](Oc1cc(-n2ccc(C(=O)N[C@H]3CCOC3)n2)nc(-c2noc3c2CCC[C@@]32CCCc3sc(N)c(C#N)c32)n1)[C@@H]1CCCN1C [II-193] has an IC50 of 2 nM.

same assay, conditions: Mus musculus, BaF3, 72 h, AlamarBlue

In order of falling IC50:
1. C[C@H](Oc1cc(N2CC3COCC(C2)N3)nc(-c2noc3c2CCC[C@@]32CCCc3sc(N)c(C#N)c32)n1)[C@@H]1CCCN1C [II-160]  2010 nM
2. CNC1CCN(c2cc(O[C@@H](C)[C@@H]3CCCN3C)nc(-c3noc4c3CCC[C@@]43CCCc4sc(N)c(C#N)c43)n2)CC1 [II-214]  1360 nM
3. C[C@H](Oc1nc(-c2noc3c2CCC[C@@]32CCCc3sc(N)c(C#N)c32)nc(N2CCN(C)C3(CC3)C2)c1Cl)[C@@H]1C[C@@H](F)CN1C [II-176]  1210 nM
4. CC(C)[C@@H]1CN(c2cc(O[C@@H](C)[C@@H]3CCCN3C)nc(-c3noc4c3CCC[C@@]43CCCc4sc(N)c(C#N)c43)n2)CCN1 [II-166]  430 nM
5. C[C@H](Oc1cc([C@H]2CCNC2)nc(-c2noc3c2CCC[C@@]32CCCc3sc(N)c(C#N)c32)n1)[C@@H]1CCCN1C [II-163]  322 nM
6. C[C@H](Oc1cc(-n2cc3c(n2)CNC3)nc(-c2noc3c2CCC[C@@]32CCCc3sc(N)c(C#N)c32)n1)[C@@H]1C[C@@H](F)CN1C [II-154]  135 nM
7. COc1c(O[C@@H](C)[C@@H]2CCCN2C)nc(-c2noc3c2CCC[C@@]32CCCc3sc(N)c(C#N)c32)nc1-n1ccc(C(N)=O)n1 [II-159]  93 nM
8. CC(=O)N1CCN(c2cc(O[C@@H](C)[C@@H]3CCCN3C)nc(-c3noc4c3CCC[C@@]43CCCc4sc(N)c(C#N)c43)n2)CC12CC2 [II-178]  32 nM
9. C[C@H](Oc1cc(-c2ccn(Cc3ncco3)n2)nc(-c2noc3c2CCC[C@@]32CCCc3sc(N)c(C#N)c32)n1)[C@@H]1CCCN1C [II-128]  31 nM
10. C[C@H](Oc1cc(N2Cc3cnn(C)c3C2)nc(-c2onc3c2CCC[C@@]32CCCc3sc(N)c(C#N)c32)n1)[C@@H]1CCCN1C [I-19]  23 nM
11. C[C@H](Oc1cc(-c2cccc(C(N)=O)c2)nc(-c2noc3c2CCC[C@@]32CCCc3sc(N)c(C#N)c32)n1)[C@@H]1CCCN1C [II-133]  19 nM
12. C[C@H](Oc1cc(-c2cn(C)nn2)nc(-c2onc3c2CCC[C@@]32CCCc3sc(N)c(C#N)c32)n1)[C@@H]1CCCN1C [I-16]  9 nM
13. C[C@H](Oc1cc(-n2cc3ccn(C[C@H]4CCOC4)c(=O)c3n2)nc(-c2noc3c2CCC[C@@]32CCCc3sc(N)c(C#N)c32)n1)[C@@H]1CCCN1C [II-204]  7 nM
14. C[C@H](Oc1cc(-n2cc3ccn([C@@H](C)c4ccccn4)c(=O)c3n2)nc(-c2noc3c2CCC[C@@]32CCCc3sc(N)c(C#N)c32)n1)[C@@H]1CCCN1C [II-205]  6 nM
15. C[C@H](Oc1cc(-n2cc3ccn([C@@H]4CCOC4)c(=O)c3n2)nc(-c2noc3c2CCC[C@@]32CCCc3sc(N)c(C#N)c32)n1)[C@@H]1CCCN1C [II-203]  4 nM
16. CO[C@H]1CCN(C)[C@@H]1[C@H](C)Oc1cc(-n2ccc(C(=O)N[C@H]3CCOC3)n2)nc(-c2noc3c2CCC[C@@]32CCCc3sc(N)c(C#N)c32)n1 [II-198]  1 nM
17. CO[C@H]1CCN(C)[C@@H]1[C@H](C)Oc1cc(-n2ccc(C(=O)N[C@@H]3CCOC3)n2)nc(-c2noc3c2CCC[C@@]32CCCc3sc(N)c(C#N)c32)n1 [II-197]  1 nM
18. COCCNC(=O)c1ccn(-c2cc(O[C@@H](C)[C@@H]3[C@@H](OC)CCN3C)nc(-c3noc4c3CCC[C@@]43CCCc4sc(N)c(C#N)c43)n2)n1 [II-200]  1 nM

tested on: not listed separately; test: Caco-2 assay (permeability PappAB, PappBA, efflux ratio); assay type: in vitro ADME; settings: human, Caco-2; apical to basolateral; 10 μM test compound, pH 7.4
Summary of the method: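 Confluent Caco-2 monolayers on filter supports, 0.25% BSA in both donor and receiver buffer; transport measured a-b and b-a. After 25-30 min preincubation at 37 °C, samples at 0, 30, 60, 90 min quantified by HPLC/MS/MS. Papp from receiver amount per time, filter area and initial donor concentration; efflux ratio = PappBA/PappAB.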

Compound C[C@H](Oc1cc(-c2ccn(C)n2)nc(-c2noc3c2CCC[C@@]32CCCc3sc(N)c(C#N)c32)n1)[C@@H]1C[C@H](F)CN1C [II-144] has a Papp A→B at 90 min, 10 μM of 15 ×10⁻⁶ cm/s.

same assay, conditions: human, Caco-2; efflux ratio PappBA/PappAB; 10 μM test compound, pH 7.4; read-out: Caco ER

In order of rising efflux ratio at 90 min, 10 μM:
1. C[C@H](Oc1cc(-c2ccn(C)n2)nc(-c2noc3c2CCC[C@@]32CCCc3sc(N)c(C#N)c32)n1)[C@@H]1C[C@H](F)CN1C [II-144]  0.7
2. C[C@H](NC(=O)c1ccn(-c2cc(O[C@@H](C)[C@@H]3CCCN3C)nc(-c3noc4c3CCC[C@@]43CCCc4sc(N)c(C#N)c43)n2)n1)c1ccccn1 [II-191]  2.5
3. C[C@H](Oc1cc(-n2ccc(-c3cn([C@H]4CCOC4)nn3)n2)nc(-c2noc3c2CCC[C@@]32CCCc3sc(N)c(C#N)c32)n1)[C@@H]1CCCN1C [II-212]  2.9
